Measurements as given in patent EP4786487A1, “PEPTIDE” (Peptidream Inc, priority 2023, dated 2025).
Starred links: 1 amine or outer side, 2 acyl side, 3 side chain; linkers in the order of their positions; H or OH if unused. Positions of bridges follow the written chain, without caps; N, C: chain ends. Non-standard residues stand in square brackets, D forms with d. Residues, ends and D or L forms follow the SMILES beside them. No end group written: not given here. *: point of attachment. Phe(3-OCH2COOH) = N[C@@H](Cc1cccc(OCC(=O)O)c1)C(=O)O; NMePhe(4-CH2NH2) = CN[C@@H](Cc1ccc(CN)cc1)C(=O)O; Phe(3-CONH2) = NC(=O)c1cccc(C[C@H](N)C(=O)O)c1; Phe(4-CONH2) = NC(=O)c1ccc(C[C@H](N)C(=O)O)cc1; Phe(4-COOH) = N[C@@H](Cc1ccc(C(=O)O)cc1)C(=O)O; Trp(7-aza) = N[C@@H](Cc1c[nH]c2ncccc12)C(=O)O; Gly(Nα-CH2CH2CONH2) = NC(=O)CCNCC(=O)O; Gly(N(CH2)3COOH) = O=C(O)CCCNCC(=O)O; X1 = CCCCCCC[C@H](N[*:1])C(=O)[*:2]; NMeF = CN[C@@H](Cc1ccccc1)C(=O)O; 3Pal = N[C@@H](Cc1cccnc1)C(=O)O; 4Pal = N[C@@H](Cc1ccncc1)C(=O)O; Carboxymethyl = O=C(O)C*; NMeA = CN[C@@H](C)C(=O)O; Sar = CNCC(=O)O

Assays:
Format in all cases: cell-based
Myostatin [1] = molecular target: T1, Myostatin (Homo sapiens, UniProt O14793); experiment: Reporter gene assay for myostatin signaling in HepG2 cell line, Evaluation Procedure (1), myostatin inhibition; settings: Method A: Myostatin 10 ng/mL; read-out: IC50 (Luciferase) Myostatin HepG2
T1 construct: active myostatin (also called mature myostatin) is a homodimer consisting of two C-terminal growth factor domains; purchased R&D systems 788-G8/CF
T1 sequence (O14793 267-375): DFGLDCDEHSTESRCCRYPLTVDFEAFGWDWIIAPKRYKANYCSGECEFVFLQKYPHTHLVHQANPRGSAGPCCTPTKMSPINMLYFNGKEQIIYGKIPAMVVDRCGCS
Procedure: (§1) In this Example, the in vitro myostatin inhibitory effects of the peptides synthesized in Examples 1 and 2 were evaluated using a reporter gene assay for myostatin signaling in HepG2 cell line.
(§2) HepG2 cell line (HB-8065, ATCC) cultured in EMEM (055-08975, WAKO Industries) containing 10% FBS (10270106, Gibco) and 50 µg/mL gentamicin (11980-14, Nacalai Tesque) was seeded in 96-well plates (167008, Thermo) at 2.0 × 10^4 cells/well and incubated in a CO2 incubator (37°C, 5% CO2) for 24 hours. The pGL3(CAGA)12-luc plasmid, namely a pGL3 vector (E1751, Promega) having a luciferase gene inserted downstream of a promoter sequence with 12 CAGA repeats attached, was added to the wells along with a transfection reagent (X-treamGENE9 DNA Transfection Reagent, 6365809001, Roche) at a concentration of 0.04 µg/well. The cell line was cultured in a CO2 incubator (37°C, 5% CO2) for 24 hours for transfection. The medium was discarded and replaced with EMEM containing 50 µL/well of 0.1% bovine serum albumin (A7030, Sigma) and 50 µg/mL gentamicin, and incubated in a CO2 incubator (37°C, 5% CO2) for 2 hours.
(§3) Myostatin (788-G8/C, R&D systems) or GDF-11 (1958-GD-G8/CF, R&D systems) was added so that the final concentrations were those listed in Table 5.
(§4) A 4-fold dilution series of various peptides synthesized in Examples 1 and 2 was added to achieve 0.006-100 nmol/L (myostatin inhibition) and 0.12-2000 nmol/L (GDF-11 inhibition). At this time, blank wells, in which neither myostatin, GDF-11, nor each peptide was added, were also prepared and incubated in a CO2 incubator (37°C, 5% CO2) for 20 to 24 hours.
(§5) The medium containing the cells was removed, and a mixture containing PBS (14190144, Thermo) and a chromogenic substrate One-Glo Luciferase Assay System (E6120, Promega) at a ratio of 1:1 was added to each well at 100 µL/well. This was stirred with a plate shaker for 5 min and transferred to a 384-well plate (3570, Corning) at a volume of 20 µL/well.
(§6) The plate was centrifuged at 1,000 × g for 1 min and the luminescence signal (700 nm luminescence) was measured using a plate reader (Envision 2104, PerkinElmer). Based on the measured values, IC50 values of the peptides were calculated using software (Prism 9, GraphPad). […]
(§7) In this Example, the in vitro myostatin inhibitory effects of the peptides synthesized in Examples 10 and 11 were evaluated according to the Evaluation Procedure (1) in Example 3.

Myostatin [2] = experiment: as above; settings: for Selectivity: GDF-11 IC50 versus Myostatin IC50
Procedure: as §1, §2, §3, §4, §5, §6, §7

GDF-11 = molecular target: T2, GDF-11 (Homo sapiens, UniProt O95390); experiment: Reporter gene assay for myostatin signaling in HepG2 cell line, Evaluation Procedure (1), GDF-11 inhibition; settings: Method A: GDF-11 10 ng/mL; read-out: IC50 (Luciferase) GDF-11 HepG2
T2 construct: purchased R&D systems 1958-GD-G8/CF
T2 sequence (O95390 299-407): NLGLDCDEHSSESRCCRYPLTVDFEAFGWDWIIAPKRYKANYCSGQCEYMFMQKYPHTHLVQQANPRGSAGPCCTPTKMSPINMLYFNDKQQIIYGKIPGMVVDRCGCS
Procedure: as §1, §2, §3, §4, §5, §6, §7

| IC50 (Myostatin [1]) [µM] | IC50 (GDF-11) [µM] | Compound | Selectivity (Myostatin [2]; Method A) | Selectivity (Myostatin [2]; Method D) | inhibitory activity against myostatin (Myostatin [2]; HepG2 reporter assays, statement in words) |
| --- | --- | --- | --- | --- | --- |
| 0.0448 | 2.01 | CC[C@H](C)[C@@H]1NC(=O)[C@H](Cc2ccccc2)N(C)C(=O)[C@H](Cc2ccc(O)cc2)NC(=O)[C@H](Cc2c[nH]c3ncccc23)NC(=O)[C@H](C)NC(=O)CN(CCCC(=O)O)C(=O)CSC[C@H](C(=O)O)NC(=O)[C@H](Cc2ccccc2)N(C)C(=O)[C@H](C)N(C)C(=O)[C@H](CC(C)C)NC(=O)[C@H](Cc2ccccc2)N(C)C(=O)[C@H](CCCNC(=N)N)NC(=O)[C@H](Cc2ccc(C(=O)O)cc2)NC(=O)[C@H](Cc2ccccc2)NC(=O)CN(C)C1=O [Myostatin_99_Variant_20-OH] ({CH2CO}-[Gly(N(CH2)3COOH)]A[Trp(7-aza)]Y[NMeF]I[Sar]F[Phe(4-COOH)]R[NMeF]L[NMeA][NMeF][dC]-OH; thioether N-15) | 45 | – | – |
| 0.0637 | 1.63 | CC[C@H](C)[C@@H]1NC(=O)[C@H](Cc2ccccc2)N(C)C(=O)[C@H](Cc2ccc(O)cc2)NC(=O)[C@H](Cc2c[nH]c3ncccc23)NC(=O)[C@H](C)NC(=O)CN(CCCC(=O)O)C(=O)CSC[C@H](C(=O)O)NC(=O)[C@H](Cc2ccccc2)N(C)C(=O)[C@H](C)N(C)C(=O)[C@H](CC(C)C)NC(=O)[C@H](Cc2ccccc2)N(C)C(=O)[C@H](CCCNC(=N)N)NC(=O)[C@H](Cc2cccnc2)NC(=O)[C@H](Cc2ccccc2)NC(=O)CN(C)C1=O [Myostatin_99_v41] ({CH2CO}-[Gly(N(CH2)3COOH)]A[Trp(7-aza)]Y[NMeF]I[Sar]F[3Pal]R[NMeF]L[NMeA][NMeF][dC]-OH; thioether N-15) | 26 | – | – |
| 0.0332 | 1.99 | CC[C@H](C)[C@@H]1NC(=O)[C@H](Cc2ccccc2)N(C)C(=O)[C@H](Cc2ccc(O)cc2)NC(=O)[C@H](Cc2c[nH]c3ncccc23)NC(=O)[C@H](C)NC(=O)CN(CCCC(=O)O)C(=O)CSC[C@H](C(=O)O)NC(=O)[C@H](Cc2ccccc2)N(C)C(=O)[C@H](C)N(C)C(=O)[C@H](CC(C)C)NC(=O)[C@H](Cc2ccccc2)N(C)C(=O)[C@H](CCCNC(=N)N)NC(=O)[C@H](Cc2ccc(OCC(=O)O)cc2)NC(=O)[C@H](Cc2ccccc2)NC(=O)CN(C)C1=O [Myostatin_99_v43] ({CH2CO}-[Gly(N(CH2)3COOH)]A[Trp(7-aza)]Y[NMeF]I[Sar]FY(Carboxymethyl)R[NMeF]L[NMeA][NMeF][dC]-OH; thioether N-15) | 60 | – | – |
| 0.0084 | 0.81 | CC[C@H](C)[C@@H]1NC(=O)[C@H](Cc2ccccc2)N(C)C(=O)[C@H](Cc2ccc(O)cc2)NC(=O)[C@H](Cc2c[nH]c3ncccc23)NC(=O)[C@H](C)NC(=O)CN(CCCC(=O)O)C(=O)CSC[C@H](C(=O)O)NC(=O)[C@H](Cc2ccccc2)N(C)C(=O)[C@H](C)N(C)C(=O)[C@H](CC(C)C)NC(=O)[C@H](Cc2ccccc2)N(C)C(=O)[C@H](CCCNC(=N)N)NC(=O)[C@H](Cc2ccc(C(N)=O)cc2)NC(=O)[C@H](Cc2ccccc2)NC(=O)CN(C)C1=O [Myostatin_99_v44] ({CH2CO}-[Gly(N(CH2)3COOH)]A[Trp(7-aza)]Y[NMeF]I[Sar]F[Phe(4-CONH2)]R[NMeF]L[NMeA][NMeF][dC]-OH; thioether N-15) | 96 | – | – |
| 0.0128 | 0.332 | CC[C@H](C)[C@@H]1NC(=O)[C@H](Cc2ccccc2)N(C)C(=O)[C@H](Cc2ccc(O)cc2)NC(=O)[C@H](Cc2c[nH]c3ncccc23)NC(=O)[C@H](C)NC(=O)CN(CCCC(=O)O)C(=O)CSC[C@H](C(=O)O)NC(=O)[C@H](Cc2ccccc2)N(C)C(=O)[C@H](C)N(C)C(=O)[C@H](CC(C)C)NC(=O)[C@H](Cc2ccccc2)N(C)C(=O)[C@H](CCCNC(=N)N)NC(=O)[C@H](Cc2cccc(C(N)=O)c2)NC(=O)[C@H](Cc2ccccc2)NC(=O)CN(C)C1=O [Myostatin_99_v45] ({CH2CO}-[Gly(N(CH2)3COOH)]A[Trp(7-aza)]Y[NMeF]I[Sar]F[Phe(3-CONH2)]R[NMeF]L[NMeA][NMeF][dC]-OH; thioether N-15) | 26 | – | – |

Continued, compound first:

| Compound | IC50 (Myostatin [1]) [µM] | IC50 (GDF-11) [µM] | Selectivity (Myostatin [2]; Method A) | Selectivity (Myostatin [2]; Method D) | inhibitory activity against myostatin (Myostatin [2]; HepG2 reporter assays, statement in words) |
| --- | --- | --- | --- | --- | --- |
| CC[C@H](C)[C@@H]1NC(=O)[C@H](Cc2ccccc2)N(C)C(=O)[C@H](Cc2ccc(O)cc2)NC(=O)[C@H](Cc2c[nH]c3ncccc23)NC(=O)[C@H](C)NC(=O)CN(CCCC(=O)O)C(=O)CSC[C@H](C(=O)O)NC(=O)[C@H](Cc2ccccc2)N(C)C(=O)[C@H](C)N(C)C(=O)[C@H](CC(C)C)NC(=O)[C@H](Cc2ccccc2)N(C)C(=O)[C@H](CCCNC(=N)N)NC(=O)[C@H](Cc2ccc(C(=O)O)cc2)NC(=O)[C@H](Cc2ccncc2)NC(=O)CN(C)C1=O [Myostatin_99_Variant_21-OH] ({CH2CO}-[Gly(N(CH2)3COOH)]A[Trp(7-aza)]Y[NMeF]I[Sar][4Pal][Phe(4-COOH)]R[NMeF]L[NMeA][NMeF][dC]-OH; thioether N-15) | 0.106 | 4.32 | 41 | – | – |
| CC[C@H](C)[C@@H]1NC(=O)[C@H](Cc2ccccc2)N(C)C(=O)[C@H](Cc2ccc(O)cc2)NC(=O)[C@H](Cc2c[nH]c3ncccc23)NC(=O)[C@H](C)NC(=O)CN(CCCC(=O)O)C(=O)CSC[C@H](C(=O)NCC(=O)N[C@H](CCC(=O)O)C(=O)NCC(=O)N[C@H](CCCCN)C(=O)O)NC(=O)[C@H](Cc2ccccc2)N(C)C(=O)[C@H](C)N(C)C(=O)[C@H](CC(C)C)NC(=O)[C@H](Cc2ccccc2)N(C)C(=O)[C@H](CCCNC(=N)N)NC(=O)[C@H](Cc2ccc(C(=O)O)cc2)NC(=O)[C@H](Cc2ccncc2)NC(=O)CN(C)C1=O [Myostatin_99_v31] ({CH2CO}-[Gly(N(CH2)3COOH)]A[Trp(7-aza)]Y[NMeF]I[Sar][4Pal][Phe(4-COOH)]R[NMeF]L[NMeA][NMeF][dC]G[dE]G[dK]-OH; thioether N-15) | 0.0547 | 1.34 | 25 | – | – |
| CC[C@H](C)[C@@H]1NC(=O)[C@H](Cc2ccccc2)N(C)C(=O)[C@H](Cc2ccc(O)cc2)NC(=O)[C@H](Cc2c[nH]c3ncccc23)NC(=O)[C@H](C)NC(=O)CN(CCC(N)=O)C(=O)CSC[C@H](C(=O)O)NC(=O)[C@H](Cc2ccccc2)N(C)C(=O)[C@H](C)N(C)C(=O)[C@H](CC(C)C)NC(=O)[C@H](Cc2ccccc2)N(C)C(=O)[C@H](CCCNC(=N)N)NC(=O)[C@H](Cc2ccc(C(=O)O)cc2)NC(=O)[C@H](Cc2ccccc2)NC(=O)CN(C)C1=O [Myostatin_99_v46] ({CH2CO}-[Gly(Nα-CH2CH2CONH2)]A[Trp(7-aza)]Y[NMeF]I[Sar]F[Phe(4-COOH)]R[NMeF]L[NMeA][NMeF][dC]-OH; thioether N-15) | 0.0432 | 1.54 | 36 | – | – |
| CCCCCCC[C@@H]1NC(=O)[C@@H]2Cc3ccc(cc3)CNC(=O)C[C@H](NC(=O)CSC[C@H](C(=O)O)NC(=O)[C@H](Cc3ccccc3)N(C)C(=O)[C@H](C)N(C)C1=O)C(=O)N[C@@H](C)C(=O)N[C@@H](Cc1c[nH]c3ccccc13)C(=O)N[C@@H](Cc1ccc(O)cc1)C(=O)N(C)[C@@H](Cc1ccccc1)C(=O)N[C@@H]([C@@H](C)CC)C(=O)N(C)[C@@H](C)C(=O)N[C@@H](Cc1cccc(OCC(=O)O)c1)C(=O)N[C@@H](Cc1ccc(C(=O)O)cc1)C(=O)N[C@@H](CCCNC(=N)N)C(=O)N2C [Myostatin_99_v386] ({CH2CO}-DAWY[NMeF]I[NMeA][Phe(3-OCH2COOH)][Phe(4-COOH)]R[NMePhe(4-CH2NH2)][X1][NMeA][NMeF][dC]-OH; lactam 1-11 (inferred); thioether N-15 (inferred); N-terminus and C-terminus assumed) | – | – | – | 294.1 | – |
| A-R-W-Y-MeF-I-MeG-Y-Y-R-MeF-L-MeA-MeF-C (ARWY[NMeF]I[Sar]YYR[NMeF]L[NMeA][NMeF]C) [SEQ ID NO: 1] | – | – | – | – | confirmed to have myostatin inhibitory activity |
